The text below walks through data of patent publication US11730720B2, “ALK5 inhibitors” (THERAVANCE BIOPHARMA R&D IP, LLC, priority 2018, dated 2023).

Experiment [1] deals with T1, recombinant human ALK5 (TGF-βR1) protein (Homo sapiens, UniProt P36897).
T1 construct: purchased Life Technologies PR9075A
T1 sequence (P36897 34-503): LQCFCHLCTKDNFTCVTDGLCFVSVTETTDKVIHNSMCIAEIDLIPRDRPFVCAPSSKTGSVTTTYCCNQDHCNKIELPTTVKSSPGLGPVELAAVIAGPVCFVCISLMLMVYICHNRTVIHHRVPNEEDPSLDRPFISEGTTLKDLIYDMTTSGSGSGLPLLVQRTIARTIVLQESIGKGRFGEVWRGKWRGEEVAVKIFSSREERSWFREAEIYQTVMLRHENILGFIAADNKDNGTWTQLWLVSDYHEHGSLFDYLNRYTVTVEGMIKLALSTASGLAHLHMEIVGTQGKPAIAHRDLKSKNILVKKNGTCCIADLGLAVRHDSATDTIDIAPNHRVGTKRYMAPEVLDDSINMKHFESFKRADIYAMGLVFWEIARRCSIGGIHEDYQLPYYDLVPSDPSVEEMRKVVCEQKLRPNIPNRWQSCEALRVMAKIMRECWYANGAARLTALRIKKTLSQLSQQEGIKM
Briefly: Biochemical ALK5 (TGF-βR1) assay to measure pKi (LANCE Ultra ULight kinase assay). As to conditions: apparent pKi, converted from pIC50 using the Cheng-Prusoff equation. A digest of the protocol:
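TR-FRET kinase format: compound dose range 10 μM–25 pM equilibrated 60 min with human ALK5 and ULight-labelled topoisomerase 2α peptide in HEPES/MgCl2 buffer pH 7.5 with DTT. Reaction started with ATP (125 μM stock, 5× final), 60 min at 37° C, stopped with EDTA/Eu-anti-phospho antibody; pKi derived from pIC50 via Cheng-Prusoff.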
In general terms: In TR-FRET formats the signal depends on donor and acceptor labels being close together.

Experiment [2] deals with TGF-β-stimulated SMAD3 phosphorylation in BEAS-2B cells. Briefly: Cellular ALK5 potency assay, inhibition of TGF-β stimulated pSMAD3 formation in BEAS-2B cells. The format is cell-based. As to conditions: Homo sapiens, inhibition of TGF-β (10 ng/mL) stimulated pSMAD3 formation, 1 hour compound incubation, read-out: BEAS2B pIC50 (converted). A digest of the protocol:
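Phospho-SMAD3 was quantified by AlphaLISA in lysates of human lung epithelial BEAS-2B cells. Compound was added 1 h (37 °C, HEPES/BSA-supplemented HBSS) before a 30 min challenge with 10 ng/mL TGF-β. Values are pIC50 relative to stimulated cells without compound.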

With `CC(CO)N1CCN(CCNc2cnc3ccc(-c4c[nH]nc4-c4cc(Cl)c(F)cc4F)nc3c2)CC1` (stereo not drawn) [Compound 6-72, 2-[4-[2-[[6-[3-(5-chloro-2,4-difluoro-phenyl)-1H-pyrazol-4-yl]-1,5-naphthyridin-3-yl]amino]ethyl]piperazin-1-yl]propan-1-ol], the Ki in experiment [1] is 0.0398 to 0.316 nM. Besides, the IC50 in experiment [2] was 25.1 to 158 nM.
Taken in the same sequence, the figures for `CNCC1CN(c2cnc3ccc(-c4c[nH]nc4-c4cc(Cl)c(F)cc4F)nc3c2)C1` [Compound 6-29, 1-[1-[6-[3-(5-chloro-2,4-difluoro-phenyl)-1H-pyrazol-4-yl]-1,5-naphthyridin-3-yl]azetidin-3-yl]-N-methyl-methanamine] were no more than 0.0316 nM and no more than 20 nM.
The like results for `Fc1ccccc1-c1[nH]nnc1-c1ccc2ncc(-c3c[nH]nc3C(F)(F)F)cc2n1` [Compound 12-2, 2-[5-(2-fluorophenyl)-1H-triazol-4-yl]-7-[3-(trifluoromethyl)-1H-pyrazol-4-yl]-1,5-naphthyridine] were, in that order, 3.98 to 31.6 nM and 25.1 to 158 nM.
Taken in the same sequence, the figures for `COC(=O)CC1CN(CCNc2cnc3ccc(-c4c[nH]nc4-c4cc(Cl)c(F)cc4F)nc3c2)CCN1` (stereo not drawn) [Compound 6-75, methyl 2-[4-[2-[[6-[3-(5-chloro-2,4-difluoro-phenyl)-1H-pyrazol-4-yl]-1,5-naphthyridin-3-yl]amino]ethyl]piperazin-2-yl]acetate] were 0.398 to 3.16 nM and 25.1 to 158 nM.
With `CNC1CCN(c2cnc3ccc(-c4c[nH]nc4-c4cc(Cl)ccc4F)nc3c2)C1` (stereo not drawn) [Compound 1-56, 1-[6-[3-(5-chloro-2-fluoro-phenyl)-1H-pyrazol-4-yl]-1,5-naphthyridin-3-yl]-N-methyl-pyrrolidin-3-amine], the Ki in experiment [1] was 0.0398 to 0.316 nM. For the same compound, in experiment [2], the IC50 is no more than 20 nM.
The like results for `Fc1ccc(Cl)cc1-c1n[nH]cc1-c1ccc2ncc(-c3cnc4n3CCN4)cc2n1` [Compound 1-106, 2-[3-(5-chloro-2-fluoro-phenyl)-1H-pyrazol-4-yl]-7-(6,7-dihydro-5H-imidazo[1,2-a]imidazol-3-yl)-1,5-naphthyridine] were, in that order, no more than 0.0316 nM and 25.1 to 158 nM.
Taken in the same sequence, the figures for `Fc1ccc(Cl)cc1-c1n[nH]cc1-c1ccc2ncc(-c3cnn4c3CNCC4)cc2n1` [Compound 1-108, 2-[3-(5-chloro-2-fluoro-phenyl)-1H-pyrazol-4-yl]-7-(4,5,6,7-tetrahydropyrazolo[1,5-a]pyrazin-3-yl)-1,5-naphthyridine] were no more than 0.0316 nM and no more than 20 nM.
Turning to `CNCCn1ccc(-c2cnc3ccc(-c4nc[nH]c4-c4cc(Cl)ccc4F)nc3c2)n1` [Compound 2-16, 2-(3-(6-(5-(5-chloro-2-fluorophenyl)-1H-imidazol-4-yl)-1,5-naphthyridin-3-yl)-1H-pyrazol-1-yl)-N-methylethan-1-amine], the Ki in experiment [1] was 0.0398 to 0.316 nM. The IC50 in experiment [2] was 25.1 to 158 nM.
The like results for `CNCCn1cc(-c2cnc3ccc(-c4c[nH]nc4-c4ccc(F)c(F)c4)nc3c2)nn1` [Compound 8-27, 2-(4-(6-(3-(3,4-difluorophenyl)-1H-pyrazol-4-yl)-1,5-naphthyridin-3-yl)-1H-1,2,3-triazol-1-yl)-N-methylethan-1-amine] were, in that order, 0.0398 to 0.316 nM and 25.1 to 158 nM.
Taken in the same sequence, the figures for `CN(C)C1(C)CN(c2cnc3ccc(-c4c[nH]nc4-c4cc(Cl)ccc4F)nc3c2)C1` [Compound 1-33, 1-[6-[3-(5-chloro-2-fluoro-phenyl)-1H-pyrazol-4-yl]-1,5-naphthyridin-3-yl]-N,N,3-trimethyl-azetidin-3-amine] were 0.398 to 3.16 nM and 25.1 to 158 nM.
For the compound `C[C@@H]1CN(CCNc2cnc3ccc(-c4c[nH]nc4-c4cc(Cl)ccc4F)nc3c2)C[C@H](C)N1` [Compound 1-1, 6-(3-(5-chloro-2-fluorophenyl)-1H-pyrazol-4-yl)-N-(2-((3S,5R)-3,5-dimethylpiperazin-1-yl)ethyl)-1,5-naphthyridin-3-amine], the Ki in experiment [1] is 0.0398 to 0.316 nM. Further, the IC50 in experiment [2] was 25.1 to 158 nM.
Taken in the same sequence, the figures for `COCc1cccc(-c2n[nH]cc2-c2ccc3ncc(-c4cn[nH]c4)cc3n2)c1` [Compound 14-9, 2-[3-[3-(methoxymethyl)phenyl]-1H-pyrazol-4-yl]-7-(1H-pyrazol-4-yl)-1,5-naphthyridine] were 0.398 to 3.16 nM and no more than 20 nM.
Taken in the same sequence, the figures for `Fc1ccc(Cl)cc1-c1nc2ccccn2c1-c1ccc2ncc(-c3cnn4c3CNCC4)cc2n1` [Compound 3-7, 2-[2-(5-chloro-2-fluoro-phenyl)imidazo[1,2-a]pyridin-3-yl]-7-(4,5,6,7-tetrahydropyrazolo[1,5-a]pyrazin-3-yl)-1,5-naphthyridine] were 0.0398 to 0.316 nM and 25.1 to 158 nM.
Taken in the same sequence, the figures for `NCCn1cc(-c2cnc3ccc(-c4c[nH]nc4-c4ccc(F)c(F)c4)nc3c2)cn1` [Compound 8-17, 2-[4-[6-[3-(3,4-difluorophenyl)-1H-pyrazol-4-yl]-1,5-naphthyridin-3-yl]pyrazol-1-yl]ethanamine] were no more than 0.0316 nM and no more than 20 nM.
For `CN1CCN(c2ccc(Nc3cnc4ccc(-c5c[nH]nc5-c5cc(Cl)ccc5F)nc4c3)nc2)CC1` [Compound 1-29, 6-(3-(5-chloro-2-fluorophenyl)-1H-pyrazol-4-yl)-N-(5-(4-methylpiperazin-1-yl)pyridin-2-yl)-1,5-naphthyridin-3-amine], the Ki in experiment [1] was 0.0398 to 0.316 nM. For the same compound, in experiment [2], the IC50 was 25.1 to 158 nM.
As for `Fc1ccc(Cl)cc1-c1n[nH]cc1-c1ccc2ncc(NCC3CNCCN3)cc2n1` (stereo not drawn) [Compound 1-26, 6-[3-(5-chloro-2-fluoro-phenyl)-1H-pyrazol-4-yl]-N-(piperazin-2-ylmethyl)-1,5-naphthyridin-3-amine], the Ki in experiment [1] is 0.0398 to 0.316 nM. Moreover, the IC50 in experiment [2] is 25.1 to 158 nM.
With `Fc1cc(F)c(-c2n[nH]cc2-c2ccc3ncc(NCC4CCCN4)cc3n2)cc1Cl` (racemic) [Compound 6-73, 6-[3-(5-chloro-2,4-difluoro-phenyl)-1H-pyrazol-4-yl]-N-[[rac-(2S)-pyrrolidin-2-yl]methyl]-1,5-naphthyridin-3-amine], in experiment [1], the Ki was 0.398 to 3.16 nM. The IC50 in experiment [2] is 25.1 to 158 nM.
Take `OCCN1CCN(c2cnc3ccc(-c4c[nH]nc4-c4cc(Cl)ccc4F)nc3c2)CC1` [Compound 1-36, 2-[4-[6-[3-(5-chloro-2-fluoro-phenyl)-1H-pyrazol-4-yl]-1,5-naphthyridin-3-yl]piperazin-1-yl]ethanol]: in experiment [1], the Ki was 0.0398 to 0.316 nM. The IC50 in experiment [2] is 25.1 to 158 nM.
The like results for `CC(C)N1CCN(c2ccc(Nc3cnc4ccc(-c5nc[nH]c5-c5cc(Cl)ccc5F)nc4c3)nc2)CC1` [Compound 2-5, 6-(5-(5-chloro-2-fluorophenyl)-1H-imidazol-4-yl)-N-(5-(4-isopropylpiperazin-1-yl)pyridin-2-yl)-1,5-naphthyridin-3-amine] were, in that order, 0.0398 to 0.316 nM and 25.1 to 158 nM.
Taken in the same sequence, the figures for `Fc1cc(F)c(-c2n[nH]cc2-c2ccc3ncc(NCC4CCCNC4)cc3n2)cc1Cl` (stereo not drawn) [Compound 6-66, 6-[3-(5-chloro-2,4-difluoro-phenyl)-1H-pyrazol-4-yl]-N-(3-piperidylmethyl)-1,5-naphthyridin-3-amine] were 0.398 to 3.16 nM and 200 to 1260 nM.
The like results for `CNCCn1ccc(-c2cnc3ccc(-c4c[nH]nc4-c4cc(Cl)c(F)cc4F)nc3c2)n1` [Compound 6-40, 2-(3-(6-(3-(5-chloro-2,4-difluorophenyl)-1H-pyrazol-4-yl)-1,5-naphthyridin-3-yl)-1H-pyrazol-1-yl)-N-methylethan-1-amine] were, in that order, no more than 0.0316 nM and no more than 20 nM.
Take `COC(=O)CC1CNCCN1CCNc1cnc2ccc(-c3nc[nH]c3-c3cc(Cl)ccc3F)nc2c1` (stereo not drawn) [Compound 2-35, methyl 2-[1-[2-[[6-[5-(5-chloro-2-fluoro-phenyl)-1H-imidazol-4-yl]-1,5-naphthyridin-3-yl]amino]ethyl]piperazin-2-yl]acetate]: the Ki in experiment [1] was 0.0398 to 0.316 nM. In addition, the IC50 in experiment [2] is 25.1 to 158 nM.
Taken in the same sequence, the figures for `CN(C)C1CCN(c2cnc3ccc(-c4c(-c5cc(Cl)ccc5F)nc5ccccn45)cc3c2)C1` (racemic) [Compound 19-7, rac-(3S)-1-[6-[2-(5-chloro-2-fluoro-phenyl)imidazo[1,2-a]pyridin-3-yl]-3-quinolyl]-N,N-dimethyl-pyrrolidin-3-amine] were 0.0398 to 0.316 nM and 200 to 1260 nM.
The like results for `CN(C)C1CCN(c2cnc3ccc(-c4nc[nH]c4-c4cc(Cl)ccc4F)nc3c2)CC1` [Compound 2-6, 1-(6-(5-(5-chloro-2-fluorophenyl)-1H-imidazol-4-yl)-1,5-naphthyridin-3-yl)-N,N-dimethylpiperidin-4-amine] were, in that order, 0.0398 to 0.316 nM and 25.1 to 158 nM.
